Data taken from US9796711B2, “Substituted pyrazolo[3,4-b]pyridin-6-carboxylic acids and method of use” (AbbVie S.àr.l., priority 2015, dated 2017).
pEC50: −log10 of the molar value.

Experiments:
ΔF508-CFTR [1] = target: T1, ΔF508-CFTR (Homo sapiens, UniProt P13569, DEL508-508); experiment: CFTR cell surface levels using HRP-tagged ΔF508-CFTR expressing CFBE cells, in the presence of a co-corrector; format: cell-based; settings: HRP-tagged ΔF508-CFTR expressing CFBE cells, in the presence of 3 μM co-corrector; for pEC50: read-out: EC50
T1 construct: host or cells: CFBE41o-, doxycycline-inducible
T1 sequence (P13569 with tags, fused parts or gaps DEL508-508): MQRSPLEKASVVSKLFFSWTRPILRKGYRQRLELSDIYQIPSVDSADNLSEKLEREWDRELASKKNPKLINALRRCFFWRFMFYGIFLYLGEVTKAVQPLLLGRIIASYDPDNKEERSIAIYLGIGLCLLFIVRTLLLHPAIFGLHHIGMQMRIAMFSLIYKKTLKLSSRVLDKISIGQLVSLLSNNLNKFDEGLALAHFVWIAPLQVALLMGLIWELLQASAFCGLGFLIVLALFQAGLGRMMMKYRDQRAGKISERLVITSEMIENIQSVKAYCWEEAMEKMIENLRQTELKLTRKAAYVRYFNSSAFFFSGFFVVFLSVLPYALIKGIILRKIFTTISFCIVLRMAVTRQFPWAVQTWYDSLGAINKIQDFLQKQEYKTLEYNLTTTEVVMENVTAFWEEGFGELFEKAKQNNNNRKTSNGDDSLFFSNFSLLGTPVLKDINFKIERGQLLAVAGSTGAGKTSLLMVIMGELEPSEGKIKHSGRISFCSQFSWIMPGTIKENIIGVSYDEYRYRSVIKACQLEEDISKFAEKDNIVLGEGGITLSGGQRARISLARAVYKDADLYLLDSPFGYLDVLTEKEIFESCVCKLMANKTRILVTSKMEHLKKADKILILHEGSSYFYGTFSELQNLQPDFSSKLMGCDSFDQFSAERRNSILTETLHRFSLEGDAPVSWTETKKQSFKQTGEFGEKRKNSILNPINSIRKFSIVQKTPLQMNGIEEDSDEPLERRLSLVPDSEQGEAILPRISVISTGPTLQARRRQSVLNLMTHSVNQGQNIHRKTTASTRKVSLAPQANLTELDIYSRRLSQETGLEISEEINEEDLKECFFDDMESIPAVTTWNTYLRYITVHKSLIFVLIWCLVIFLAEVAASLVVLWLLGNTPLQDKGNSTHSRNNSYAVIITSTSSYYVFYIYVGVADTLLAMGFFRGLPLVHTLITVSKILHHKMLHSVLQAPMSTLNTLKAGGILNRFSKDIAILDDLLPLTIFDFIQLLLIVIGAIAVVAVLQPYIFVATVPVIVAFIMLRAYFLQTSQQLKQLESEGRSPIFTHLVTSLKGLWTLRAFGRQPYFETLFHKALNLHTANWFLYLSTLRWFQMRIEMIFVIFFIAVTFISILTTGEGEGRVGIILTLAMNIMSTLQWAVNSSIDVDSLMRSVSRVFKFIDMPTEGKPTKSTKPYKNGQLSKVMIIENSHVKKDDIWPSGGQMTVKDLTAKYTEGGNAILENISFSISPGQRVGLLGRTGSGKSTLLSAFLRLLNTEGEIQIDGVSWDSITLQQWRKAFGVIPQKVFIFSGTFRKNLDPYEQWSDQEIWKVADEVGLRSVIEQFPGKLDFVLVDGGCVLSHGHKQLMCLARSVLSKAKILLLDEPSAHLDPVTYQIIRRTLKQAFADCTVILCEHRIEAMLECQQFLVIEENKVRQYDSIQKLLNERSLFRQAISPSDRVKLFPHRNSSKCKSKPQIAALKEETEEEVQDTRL
Procedure, shortened: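 Cells were seeded with 0.5 μg/mL doxycycline and held 68 h at 37 °C. Test compounds plus 3 μM co-corrector (final 0.1% DMSO) were then added for 20 h at 33 °C. Washed cells received HRP substrate, and luminescence was normalized between DMSO and 3 μM co-corrector controls.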

ΔF508-CFTR [2] = target: T1, ΔF508-CFTR; experiment: CFTR cell surface levels using HRP-tagged ΔF508-CFTR expressing CFBE cells, intrinsic corrector capacity; format: cell-based; settings: for pEC50: read-out: EC50
Procedure, shortened: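 Here the cells express ΔF508-CFTR with horseradish peroxidase inserted in extracellular loop 4, so only rescued channel at the surface gives luminescent signal. Compounds act on their own, 20 h at the reduced temperature of 33 °C; values are percent activity relative to DMSO and a 3 μM corrector.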

[3] = HRP-tagged ΔF508-CFTR expressing CFBE cells, intrinsic corrector capacity (no co-corrector), 33° C., 20 hours
[4] = HRP-tagged ΔF508-CFTR CFBE41o- cells, compounds alone (intrinsic corrector capacity), 20 hours at 33° C., positive control 3 μM corrector
[5] = HRP-tagged ΔF508-CFTR CFBE41o- cells, compounds alone (intrinsic corrector capacity), 20 hours at 33° C.

SMILES	% Activation (ΔF508-CFTR [1])	pEC50 (ΔF508-CFTR [1])	% Activation (ΔF508-CFTR [2]; [3])	pEC50 (ΔF508-CFTR [2]; [3])	% Activation (ΔF508-CFTR [2]; [4])	pEC50 (ΔF508-CFTR [2]; [5])
O=C(O)c1cc(N2CC(F)(F)C2)c2c(C3CCC3)nn(-c3ccccc3)c2n1 [compound 528, 3-cyclobutyl-4-(3,3-difluoroazetidin-1-yl)-1-phenyl-1H-pyrazolo[3,4-b]pyridine-6-carboxylic acid]	209.2%	5.71	80.74%	5.48	–	–
COCCOCC1(F)CCN(c2cc(C(=O)O)nc3c2c(C2CCC2)nn3-c2ccccc2)C1 (stereo not shown) [compound 532, 3-cyclobutyl-4-{3-fluoro-3-[(2-methoxyethoxy)methyl]pyrrolidin-1-yl}-1-phenyl-1H-pyrazolo[3,4-b]pyridine-6-carboxylic acid]	271.77%	6.46	107.05%	6.15	–	–
CO[C@H]1CCN(c2cc(C(=O)O)nc3c2c(C)nn3-c2ccccc2)C1 [compound 296, 4-[(3S)-3-methoxypyrrolidin-1-yl]-3-methyl-1-phenyl-1H-pyrazolo[3,4-b]pyridine-6-carboxylic acid]	164%	5.60	–	–	29.42%	5.38
O=C(O)c1cc(N2CCC3C(CCN3C3CCOCC3)C2)c2c(C3CCC3)nn(-c3ccc(F)cc3)c2n1 (stereo not shown) [compound 903, 3-cyclobutyl-1-(4-fluorophenyl)-4-[1-(oxan-4-yl)octahydro-5H-pyrrolo[3,2-c]pyridin-5-yl]-1H-pyrazolo[3,4-b]pyridine-6-carboxylic acid]	480.55%	6.96	275.8%	6.48	–	–
O=C(O)c1cc(OCCC2OCCCO2)c2c(C3CCC3)nn(-c3ccccc3)c2n1 [compound 488, 3-cyclobutyl-4-[2-(1,3-dioxan-2-yl)ethoxy]-1-phenyl-1H-pyrazolo[3,4-b]pyridine-6-carboxylic acid]	261.9%	6.34	95.49%	6.12	–	–
O=C(O)c1cc(OCC2CCC(F)(F)C2)c2c(C3CCC3)nn(-c3ccccc3)c2n1 (stereo not shown) [compound 435, 3-cyclobutyl-4-[(3,3-difluorocyclopentyl)methoxy]-1-phenyl-1H-pyrazolo[3,4-b]pyridine-6-carboxylic acid]	290.05%	6.34	116.7%	6.11	–	–
O=C(O)c1cc(OCCCN2CCCCC2)c2c(C3CCC3)nn(-c3ccccc3)c2n1 [compound 642, 3-cyclobutyl-1-phenyl-4-[3-(piperidin-1-yl)propoxy]-1H-pyrazolo[3,4-b]pyridine-6-carboxylic acid]	281.95%	5.62	125.9%	5.48	–	–
CN(C)CC(CN(C)C)Oc1cc(C(=O)O)nc2c1c(C1CCC1)nn2-c1ccccc1 [compound 638, 4-{[1,3-bis(dimethylamino)propan-2-yl]oxy}-3-cyclobutyl-1-phenyl-1H-pyrazolo[3,4-b]pyridine-6-carboxylic acid]	175.15%	5.18	24.93%	< 5.00	–	–
COCC1(OC)CCN(c2cc(C(=O)O)nc3c2c(C2CCC2)nn3-c2ccccc2)CC1 [compound 526, 3-cyclobutyl-4-[4-methoxy-4-(methoxymethyl)piperidin-1-yl]-1-phenyl-1H-pyrazolo[3,4-b]pyridine-6-carboxylic acid]	284.5%	6.43	97.7%	6.39	–	–
Cc1nn(C2CCCCC2)c2nc(C(=O)O)cc(-c3cnc(N4CCOCC4)nc3)c12 [compound 65, 1-cyclohexyl-3-methyl-4-[2-(morpholin-4-yl)pyrimidin-5-yl]-1H-pyrazolo[3,4-b]pyridine-6-carboxylic acid]	258.2%	5.64	–	–	103.02%	5.48
